This note sets out measurements from patent US11026443B2, “Use of sedoheptulose as a nutritional supplement” (C7 SUGAR GMBH, priority 2013, dated 2021).

Series [1] deals with sedoheptulose kinase (CARKL). Put plainly: Sedoheptulose kinase assay (ADP Quest, ADP formation). The class given is biochemical. The settings on record: constant amount of recombinant CARKL, constant ATP 150 μM, increased doses of sedoheptulose. An excerpt: The ADP Quest Assay (DiscoveRx) was used to indirectly measure […] formation by ADP accumulation over time according to the manufacture instructions. Recombinant sedoheptulose kinase was previously produced in E. coli and purified by affinity purification ([…] et al., Cell Metab. 15 (2012), 813-826).

The test system of series [2] is primary human adipocytes. Put plainly: Oxygen consumption rate and extracellular acidification rate (XF-Analyzer) in primary human adipocytes. The class given is cell-based. The settings on record: human adipocytes differentiated and cultured in sedoheptulose containing media vs controls. The protocol: Stromal vascular fraction cells (SVFs) from subcutaneous white adipose tissue of a patient undergoing abdominal surgery were isolated as described before (Lindroos et al, Cell Metab. (2013), Jul. 2; 18(1):62-74.). Briefly, adipose tissue was digested with Collagenase II (Worthington) and filtered. SVFs were separated from mature adipocytes by centrifugation, followed by the lysis of erythrocytes in the SVF-fraction (Buffer EL, Qiagen). The purified SVFs were cultured in DMEM/F12, 10% FBS (Gibco, Life Technologies). As soon as the cells reached confluence, they were washed with DMEM/F12 w/o glucose (Biowest) and the medium was replaced by DMEM/F12 with a total carbohydrate load of 3 g/L, containing 1.5 g/L glucose and fructose or 1 g/L each of glucose, fructose, and sedoheptulose, respectively. […]
(§1) The XF-Analyzer (Seahorse Bio.) was used to measure changes in cellular metabolism induced by different carbohydrates. Extracellular acidification rates (ECAR, mpH/min) and oxygen consumption rates (OCR, pmoles/min) were recorded in primary human adipocytes and primary murine hepatocytes according to the manufacture instructions. […] Changes induced by the different carbohydrate sources were expressed as relative change in % to illustrate the effect of each carbon source.

Another series deals with osteoclasts. Put plainly: In vitro bone resorption assay (osteoclast pit formation). The class given is cell-based, mouse. The protocol:
Mouse bones were isolated from male wild-type and CARKL overexpressing mice and bone marrow wash flushed, washed and cleared from red blood cells by lysis, and subsequently differentiated in DMEM containing 25 mM glucose and 20 ng/ml M-CSF. After 4 days, cells for osteoclast differentiation were harvested and seeded in corning osteo assay plates with differentiation media (see below), and for primary bone marrow derived macrophages (BMDM) the medium was renewed and further supplemented with M-SCF for two days. Differentiated BMDM were then seeded in respective DMEM-media containing 10% FBS and indicated carbohydrate mixes at 3 g/L (glucose and fructose (GF), or glucose, fructose and sedoheptulose (GFS)) at least two days before experiments were performed. Osteoclast precursor cells (bone marrow cells treated with 20 ng/ml M-CSF for 4 days) were plated in 24-well Corning Osteo Assay plate in the presence of 10 ng/ml M-CSF and 100 ng/ml RANKL in alpha-MEM medium containing 10% FBS and 3 g/L either glucose and fructose (GF), or glucose, fructose, and sedoheptulose (GFS). The Medium was renewed every third day. […] Each well was entirely photographed by TissueFax with an ×20 objective and all visible resorption pits were counted and analysed blinded.

The test system of a further series is mature murine adipocytes. Put plainly: Cytokine mRNA expression in mature murine adipocytes (ceiling culture) in GF or GFS media. It counts as cell-based, mouse. To be noted: three days in sedoheptulose containing media vs glucose and fructose alone. The protocol: Anterior and posterior subcutaneous adipose tissue and epididymal white adipose tissue was isolated from transgenic CARKL-mice and wild-type littermate controls. Adipose tissue was digested as described above for the human sample. After centrifugation, the layer of floating mature adipocytes was removed and re-centrifuged at 100 rcf for 10 minutes. 150 μL of packed adipocytes were cultured under a floating coverslip in six-well plates, in DMEM/F12, 15% calf serum (PAA). 24 hours after isolation, the wells were washed twice with PBS and the medium was exchanged to DMEM/F12 with a total carbohydrate load of 3 g/L, containing 1.5 g/L glucose and fructose, or 1 g/L each of glucose, fructose and sedoheptulose, respectively. Three days later, the cells were harvested for RNA isolation using TRIreagent (Sigma).
(§2) Briefly, total RNA was extracted and reverse-transcribed using commercial kits (QIAGEN, Applied Biosystems). Quantitative real-time PCRs were performed on an AbiPRISM 7900HT real-time cycler using iTaq SYBR Green Supermix with ROX (BioRad) to measure CARKL, adiponectin, UCP-1, TNFa, IL-6, MCP-1, and beta-actin expression as previously described (Haschemi et al., Cell Metab. 15 (2012), 813-826). Expression of target gene was normalized to beta-actin expression. Relative expression of target gene was calculated by the delta-delta CT method.

Another series relates to WT hepatocytes. Put plainly: Glucose-induced ECAR in primary hepatocytes. It counts as cell-based, mouse. The settings on record: WT hepatocytes in GFS vs GF media, 1 hr carbohydrate starvation, then glucose 1 g/L. The protocol: (§3) Hepatocytes were isolated from male wild-type and CARKL overexpressing mice after the mice were sacrificed by hepatic in situ collagenase perfusion. After perfusion, the liver was quickly removed, minced, and filtered through a cell strainer (Fisher Scientific, Inc) into a 50 ml sterile tube. Hepatocytes in the resulting filtrate were purified from the nonparenchymal cells by centrifugation steps. The isolated hepatocytes were seeded into plates at a concentration of 0.25×10^6/ml in respective DMEM-media containing 10% FBS and indicated carbohydrate mixes at 3 g/L (glucose and fructose (GF), or glucose, fructose and sedoheptulose (GFS)) at least two days before experiments were performed.
as §1, with “instructions. Briefly, cells were seeded in seahorse cell plates at a density of 10^4 cells per well for adipocytes and 0.5×10^5 cells per well for hepatocytes.” for “instructions.”

Series [3] relates to primary murine hepatocytes. Put plainly: IL-6 mRNA expression in primary murine hepatocytes in GF or GFS media. The class given is cell-based, mouse. The settings on record: hepatocytes pre-cultured two days with sedoheptulose (GFS) vs GF. The protocol:
as §3, §2

Series [4] relates to primary human adipocytes. Put plainly: mRNA expression (RT-PCR) in primary human adipocytes differentiated in GF or GFS media. The class given is cell-based. To be noted: GFS (1 g/L each sugar) vs GF (1.5 g/L each), eight days differentiation. The protocol: Stromal vascular fraction cells (SVFs) from subcutaneous white adipose tissue of a patient undergoing abdominal surgery were isolated as described before (Lindroos et al, Cell Metab. (2013), Jul. 2; 18(1):62-74.). Briefly, adipose tissue was digested with Collagenase II (Worthington) and filtered. SVFs were separated from mature adipocytes by centrifugation, followed by the lysis of erythrocytes in the SVF-fraction (Buffer EL, Qiagen). The purified SVFs were cultured in DMEM/F12, 10% FBS (Gibco, Life Technologies). […] Two days after confluence (day 0), differentiation was induced by adding 1 μM dexamethasone, 1.74 μM insulin, 5 μM troglitazone, […], 17 μM pantothenic acid and 33 μM biotin. After two days, IBMX and dexamethasone were omitted, while insulin and troglitazone were removed on day 4. 50% of the medium was replaced on day 6. Two days later, the cells were harvested for RNA isolation (RNeasy mini kit, Qiagen). Briefly, total RNA was extracted and reverse-transcribed using commercial kits (QIAGEN, Applied Biosystems). Quantitative real-time PCRs were performed on an […] real-time cycler using iTaq SYBR Green Supermix with ROX (BioRad) to measure CARKL, adiponectin, UCP-1, TNFa, IL-6, MCP-1, and beta-actin expression as previously described ([…] et al., Cell Metab. 15 (2012), 813-826). […] Relative expression of target gene was calculated by the delta-delta CT method.

Series [5] in a line: Diet-derived sedoheptulose uptake in humans (serum GC-MS before/after carrot meal). The settings on record: two hours after meal of mainly steamed carrots (~700 g) vs overnight fasted, n=4. It counts as in vivo, human. An excerpt: Fresh carrots with an Austrian “organic-certificate” were sliced into small pieces and snap-frozen in liquid nitrogen. The same procedure was applied to leaves freshly harvested from indoor-grown Sedum Spectabile plants. Three samples of each tissue were pooled and homogenized to powder by glass-beads. The carbohydrate rich fractions of the samples were isolated by 20% H2O and 80% MeOH extraction solution spiked with 13C standards and processed for standard gas-chromatography coupled to mass spectrometry (GC-MS). Glucose and sedoheptulose were identified by their individual masses and their relative amount was derived from the peak area of each individual analyte normalized to 13C content. Glucose and sedoheptulose were also measured in equal volumes of serum from overnight fasted or carrot fed individuals. The carrots were steamed and some olive-oil, salt and pepper were used for flavour. Two hours before and two hours after the carrot containing meal human serum was prepared in VACUETTE® Z Serum Sep tubes from blood. Serum samples were processed as previously described and also analyzed by GC-MS as detailed above and in Ruiz-Matute A I et al., Chromatogr B Analyt Technol Biomed Life Sci. (2011) May 15 879(17-18).

Series [6] has as its system bone marrow derived macrophages. Put plainly: Cytokine secretion (ELISA) by bone marrow derived macrophages, basal and LPS-induced. The class given is cell-based, mouse. To be noted: ELISA of supernatant over two days, GFS vs GF media. The protocol:
(§4) Mouse bones were isolated from male wild-type and CARKL overexpressing mice and bone marrow wash flushed, washed and cleared from red blood cells by lysis, and subsequently differentiated in DMEM containing 25 mM glucose and 20 ng/ml M-CSF. After 4 days, cells for osteoclast differentiation were harvested and seeded in corning osteo assay plates with differentiation media (see below), and for primary bone marrow derived macrophages (BMDM) the medium was renewed and further supplemented with M-SCF for two days. Differentiated BMDM were then seeded in respective DMEM-media containing 10% FBS and indicated carbohydrate mixes at 3 g/L (glucose and fructose (GF), or glucose, fructose and sedoheptulose (GFS)) at least two days before experiments were performed.
On the technique in general: In an ELISA, binding on a coated surface is turned into a signal by an enzyme label.

The test system of series [7] is primary bone marrow derived macrophages. Put plainly: Basal cytokine mRNA expression in primary bone marrow derived macrophages in GF or GFS media. The class given is cell-based, mouse. To be noted: pre-cultured two days in GFS vs GF media. The protocol:
as §4, §2

The target in series [8] is T1, Glucose-6-phosphate dehydrogenase (G6PD) (Mus musculus, UniProt Q00612).
T1 construct: Hepatocytes were isolated from male wild-type and CARKL overexpressing mice; endogenous in cells; host or cells: primary mouse hepatocytes (WT and CARKL-transgenic)
T1 sequence (Q00612 whole entry): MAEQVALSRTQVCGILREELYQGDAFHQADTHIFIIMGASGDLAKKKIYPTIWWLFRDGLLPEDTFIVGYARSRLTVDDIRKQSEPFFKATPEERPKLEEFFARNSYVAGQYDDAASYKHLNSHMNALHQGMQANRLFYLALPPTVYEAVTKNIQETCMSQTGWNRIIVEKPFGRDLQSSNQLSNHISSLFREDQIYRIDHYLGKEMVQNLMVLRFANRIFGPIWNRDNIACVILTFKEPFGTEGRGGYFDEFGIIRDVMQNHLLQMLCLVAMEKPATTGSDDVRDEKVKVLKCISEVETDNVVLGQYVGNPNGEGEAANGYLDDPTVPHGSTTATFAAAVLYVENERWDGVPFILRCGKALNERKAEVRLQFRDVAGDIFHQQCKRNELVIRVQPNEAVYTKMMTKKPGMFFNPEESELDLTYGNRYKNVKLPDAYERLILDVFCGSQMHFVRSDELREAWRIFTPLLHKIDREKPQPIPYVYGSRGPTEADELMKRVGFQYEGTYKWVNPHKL
Put plainly: Glucose-6-phosphate dehydrogenase activity assay (enzyme histochemistry) in hepatocytes. The settings on record: WT cells incubated in cell culture media with sedoheptulose; data not shown. The class given is cell-based. The protocol:
as §3
Cells were grown on polystyrene vessel tissue culture treated glass slides, snap frozen in liquid nitrogen and kept at −80° C. The enzyme histochemical procedure was based on the tetrazolium salt method as described by Van Noorden and Frederiks. […] The medium was freshly prepared immediately before incubation. Control reactions additionally contained 40 mM glucosamine-6-phosphate. Cells were incubated at room temperature for 15 minutes under continuous mixing by orbital shaker. After incubation, cells were washed 3×5 minutes in 60° C. phosphate buffered saline, dried, and mounted in glycerol gelatin, and photographed within one day at ×10 magnification.

With `O=C(CO)[C@@H](O)[C@H](O)[C@H](O)[C@H](O)CO` [sedoheptulose, Sedoheptulose], the “sedoheptulose turnover rate (ADP formation)” value in series [1] was “enhanced”. In the series with primary human adipocytes [2], the “cellular oxygen consumption rate (OCR)” value was “increased” and the “extracellular acidification rate (ECAR)” value is “comparable”. Also, the “pit formation by osteoclasts” value with osteoclasts (7 days in GFS vs GF media, Corning Osteo Assay plates) is recorded as “reduced”. Moreover, in the series with osteoclasts (WT osteoclasts cultured in GF or GFS media), the larger resorption-pits entry is given as “found only in the absence of sedoheptulose”. For the same compound, in the series on mature murine adipocytes, the “IL-6 mRNA” value is “less” and the “TNFa mRNA” value is reported as “less”. Besides, in the series with WT hepatocytes, the “glucose-induced ECAR” value is reported as “reduced”. Further, the IL-6 expression result in [3] is reported as “less”. For the same compound, the “sedoheptulose kinase CARKL mRNA expression” value in the series with primary human adipocytes [4] is reported as “increase”. Moreover, the “increase in sedoheptulose serum levels” value in [5] is on record as “approximately two-fold”. In addition, in series [6], the “basal IL-6 secretion” value is recorded as “blocked” and the “basal TNFa secretion” value is given as “blocked”. Further, in series [7], the “basal IL-6 mRNA expression” value was “blocked” and the “basal TNFa mRNA expression” value is listed as “blocked”. Moreover, the “G6PD activity distribution (re-localization of G6PD and reduced activity in the inner space of the cells, as in CARKL overexpressing cells)” value in [8] is “same phenotype was achieved”.
